Source: PubChem BioAssay AID248 (DTP/NCI, 2004)
“And” between values parts separate entries of the source, which are not always exact repeats. Equal entries are not always repeated. Inconclusive results and toxic doses are left out.

Tested on: L1210 leukemia ip in BDF1 mice, survival T/C
Test: NCI In Vivo Anticancer Drug Screen. Data for tumor model L1210 Leukemia (intraperitoneal) in B6D2F1 (BDF1) mice
Conditions: endpoint: mean survival time, higher = longer survival
Summary of the method: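 Transplantable tumor model; survival measured in treated vs vehicle control mice. Value = treated/control.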

[1] = dose: 100.0 mg/kg/injection, schedule: Q04DX003 (ip), vehicle: Klucel (hydroxypropylcellulose) (HPC)
[2] = dose: 200.0 mg/kg/injection, schedule: Q04DX003 (ip), vehicle: Klucel (hydroxypropylcellulose) (HPC)
[3] = dose: 100.0 mg/kg/injection, schedule: Q04DX003 (ip), vehicle: saline with Tween-80
[4] = dose: 200.0 mg/kg/injection, schedule: Q04DX003 (ip), vehicle: saline with Tween-80
[5] = dose: 400.0 mg/kg/injection, schedule: Q04DX003 (ip), vehicle: saline with Tween-80
[6] = dose: 200.0 mg/kg/injection, schedule: Q01DX001 (ip), vehicle: saline with Tween-80
[7] = dose: 100.0 mg/kg/injection, schedule: Q01DX001 (ip), vehicle: saline
[8] = dose: 200.0 mg/kg/injection, schedule: Q01DX001 (ip), vehicle: saline
[9] = dose: 400.0 mg/kg/injection, schedule: Q01DX001 (ip), vehicle: saline
[10] = dose: 50.0 mg/kg/injection, schedule: Q01DX009 (ip), vehicle: saline with Tween-80
[11] = dose: 100.0 mg/kg/injection, schedule: Q01DX009 (ip), vehicle: saline with Tween-80
[12] = dose: 200.0 mg/kg/injection, schedule: Q01DX009 (ip), vehicle: saline with Tween-80

In the case of `O=C1CCCN(c2ccccc2)c2ccccc21`, the T/C (dose: 100.0 mg/kg/injection, schedule: Q01DX009 (ip), vehicle: other) is reported as 100 % of control, the T/C (dose: 100.0 mg/kg/injection, schedule: Q04DX003 (ip), vehicle: other) is reported as 98 % of control and the T/C (dose: 200.0 mg/kg/injection, schedule: Q01DX009 (ip), vehicle: other) is reported as 98 % of control. The T/C (dose: 200.0 mg/kg/injection, schedule: Q04DX003 (ip), vehicle: other) was 109 % of control, the T/C (dose: 400.0 mg/kg/injection, schedule: Q01DX009 (ip), vehicle: other) was 96 % of control and the T/C (dose: 400.0 mg/kg/injection, schedule: Q04DX003 (ip), vehicle: other) was 104 % of control.

In the case of `CCOP(=O)(Nc1ccc2c(c1)Cc1cc(Cl)ccc1-2)OCC`, the T/C (dose: 50.0 mg/kg/injection, schedule: Q01DX001 (ip), vehicle: carboxymethylcellulose (CMC)) is reported as 97 % of control, the T/C (dose: 100.0 mg/kg/injection, schedule: Q01DX001 (ip), vehicle: carboxymethylcellulose (CMC)) is reported as 105 % of control and the T/C (dose: 200.0 mg/kg/injection, schedule: Q01DX001 (ip), vehicle: carboxymethylcellulose (CMC)) is reported as 97 % of control. The T/C (dose: 400.0 mg/kg/injection, schedule: Q01DX001 (ip), vehicle: carboxymethylcellulose (CMC)) was 92 % of control.

With `CSc1ccnc2n[nH]nc12` the T/C (dose: 100.0 mg/kg/injection, schedule: Q01DX001 (ip), vehicle: Klucel (hydroxypropylcellulose) (HPC)) was 102 % of control, the T/C [1] was 94 % of control and the T/C (dose: 200.0 mg/kg/injection, schedule: Q01DX001 (ip), vehicle: Klucel (hydroxypropylcellulose) (HPC)) was 104 % of control. The T/C [2] was 101 % of control.

With `O/N=C1/C=C(c2ccccc2)C(O)(c2ccccc2)C1` (stereo not drawn) the T/C [3] was 102 % of control, the T/C [4] was 96 % of control and the T/C [5] was 93 % of control.

In the case of `CCOC(OCC)c1nc(NC(C)=O)[nH]c(=O)c1CCCCc1ccccc1`, the T/C [6] is reported as 88 % of control and the T/C (dose: 400.0 mg/kg/injection, schedule: Q01DX001 (ip), vehicle: saline with Tween-80) is reported as 91 % of control.

`COc1ccc(C(=O)C(C)C(C)OC(=O)c2ccccc2C(=O)O)cc1` (stereo not drawn) was tested, and the T/C [7] was 96 % of control, the T/C [8] was 98 % of control and the T/C [9] was 93 % of control.

In the case of `CCCC[n+]1cccc(C(=O)c2ccccc2)c1`, the T/C (dose: 75.0 mg/kg/injection, schedule: Q01DX001 (ip), vehicle: saline) is reported as 101 % of control.

For `CC(C)C1=CC2=CCC3C(C)(CN)CCCC3(C)C2CC1CCN` (stereo not drawn), the T/C (dose: 1.25 mg/kg/injection, schedule: Q04DX003 (ip), vehicle: saline) was 100 % of control, the T/C (dose: 2.5 mg/kg/injection, schedule: Q04DX003 (ip), vehicle: saline) was 108 % of control and the T/C (dose: 5.0 mg/kg/injection, schedule: Q04DX003 (ip), vehicle: saline with Tween-80) was 96 % of control. The T/C (dose: 5.0 mg/kg/injection, schedule: Q04DX003 (ip), vehicle: saline) was 101 % of control.

With `CCCCOP(=S)(OCCCC)[S][Hg][c]1ccco1` the T/C (dose: 25.0 mg/kg/injection, schedule: Q04DX002 (ip), vehicle: alcohol) was 97 % of control and the T/C (dose: 50.0 mg/kg/injection, schedule: Q04DX002 (ip), vehicle: alcohol) was 97 % of control.

With `Nc1nc2ccc(CNc3ccc(C(=O)NC(CC(=O)O)C(=O)O)cc3)cc2c(=O)[nH]1` (stereo not drawn) the T/C (dose: 18.7 mg/kg/injection, schedule: Q01DX001 (ip), vehicle: saline with Tween-80) was 102 % of control, the T/C (dose: 37.5 mg/kg/injection, schedule: Q01DX001 (ip), vehicle: saline with Tween-80) was 113 % of control and the T/C (dose: 75.0 mg/kg/injection, schedule: Q01DX001 (ip), vehicle: saline with Tween-80) was 115 % of control. For the same compound, the T/C (dose: 100.0 mg/kg/injection, schedule: Q01DX001 (ip), vehicle: saline with Tween-80) was 109 % of control and the T/C [6] was 109 % of control.

For `O=c1nc(-c2ccccc2)c(-c2ccccc2)n[nH]1`, the T/C [10] was 91 % of control, the T/C [11] was 98 % of control and the T/C [1] was 107 % of control. The T/C [12] was 98 % of control, the T/C [2] was 100 % of control and the T/C (dose: 400.0 mg/kg/injection, schedule: Q04DX003 (ip), vehicle: Klucel (hydroxypropylcellulose) (HPC)) was 102 % of control.

`CNC(=O)OCC1=CC(=O)C(C)=CC1=O` was tested, and the T/C (dose: 1.56 mg/kg/injection, schedule: Q01DX009 (ip), vehicle: gum acacia) was 96 % of control, the T/C (dose: 3.12 mg/kg/injection, schedule: Q01DX009 (ip), vehicle: gum acacia) was 89 % of control and the T/C (dose: 6.25 mg/kg/injection, schedule: Q01DX009 (ip), vehicle: gum acacia) was 89 % of control. For the same compound, the T/C (dose: 12.5 mg/kg/injection, schedule: Q04DX003 (ip), vehicle: gum acacia) was 95 % of control and the T/C (dose: 25.0 mg/kg/injection, schedule: Q04DX003 (ip), vehicle: gum acacia) was 103 % of control.

With `CC(SC(C)c1ccccc1)c1ccccc1` (stereo not drawn) the T/C [11] was 93 % of control, the T/C [3] was 101 % of control and the T/C [12] was 91 % of control. For the same compound, the T/C [4] was 106 % of control and the T/C [5] was 97 % of control.

With `O=NN(CCCl)C(=O)NC1CCC(C(=O)O)CC1` (stereo not drawn) the T/C (dose: 6.0 mg/kg/injection, schedule: Q01DX001 (ip), vehicle: saline with Tween-80) was 168 % of control, the T/C (dose: 9.0 mg/kg/injection, schedule: Q01DX001 (ip), vehicle: saline with Tween-80) was 195 % of control and 215 % of control and the T/C (dose: 13.0 mg/kg/injection, schedule: Q01DX001 (ip), vehicle: saline with Tween-80) was 275 % of control and 154 % of control and 260 % of control. For the same compound, the T/C (dose: 20.0 mg/kg/injection, schedule: Q01DX001 (ip), vehicle: saline with Tween-80) was 291 % of control and 409 % of control, the T/C (dose: 30.0 mg/kg/injection, schedule: Q01DX001 (ip), vehicle: saline with Tween-80) was 310 % of control and the T/C (dose: 45.0 mg/kg/injection, schedule: Q01DX001 (ip), vehicle: saline with Tween-80) was 544 % of control. The T/C (dose: 46.0 mg/kg/injection, schedule: Q01DX001 (ip), vehicle: saline with Tween-80) was 311 % of control and 191 % of control, the T/C (dose: 67.5 mg/kg/injection, schedule: Q01DX001 (ip), vehicle: saline with Tween-80) was 525 % of control and the T/C (dose: 93.0 mg/kg/injection, schedule: Q01DX001 (ip), vehicle: saline with Tween-80) was 209 % of control and 101 % of control. For the same compound, the T/C (dose: 139.0 mg/kg/injection, schedule: Q01DX001 (ip), vehicle: saline with Tween-80) was 91 % of control.

`O=C(CCl)Nc1ccc(C(=O)O)cc1` was tested, and the T/C (dose: 3.0 mg/kg/injection, schedule: Q01DX Z (ip), vehicle: carboxymethylcellulose (CMC)) was 96 % of control, the T/C (dose: 7.0 mg/kg/injection, schedule: Q01DX Z (ip), vehicle: carboxymethylcellulose (CMC)) was 102 % of control and the T/C (dose: 15.0 mg/kg/injection, schedule: Q01DX Z (ip), vehicle: carboxymethylcellulose (CMC)) was 88 % of control. The T/C (dose: 30.0 mg/kg/injection, schedule: Q01DX Z (ip), vehicle: carboxymethylcellulose (CMC)) was 104 % of control.

With `CCOC(=O)/C(N=O)=C(/O)c1ccccc1` the T/C [3] was 103 % of control, the T/C [4] was 94 % of control and the T/C [5] was 96 % of control.

For `Nc1nc(SN=Nc2ccc(S(N)(=O)=O)cc2)c2[nH]cnc2n1`, the T/C (dose: 0.16 mg/kg/injection, schedule: Q01DX Z (ip), vehicle: other) was 110 % of control, the T/C (dose: 1.5 mg/kg/injection, schedule: Q04DX003 (ip), vehicle: saline with Tween-80) was 111 % of control and the T/C (dose: 2.0 mg/kg/injection, schedule: Q01DX Z (ip), vehicle: methylcellulose (MC)) was 165 % of control. For the same compound, the T/C (dose: 3.0 mg/kg/injection, schedule: Q01DX Z (ip), vehicle: methylcellulose (MC)) was 154 % of control, the T/C (dose: 5.0 mg/kg/injection, schedule: Q01DX Z (ip), vehicle: other) was 153 % of control and the T/C (dose: 12.0 mg/kg/injection, schedule: Q04DX003 (ip), vehicle: saline with Tween-80) was 155 % of control. The T/C (dose: 17.0 mg/kg/injection, schedule: Q04DX003 (ip), vehicle: saline with Tween-80) was 158 % of control and 159 % of control, the T/C (dose: 20.0 mg/kg/injection, schedule: Q01DX Z (ip), vehicle: methylcellulose (MC)) was 124 % of control and the T/C (dose: 25.0 mg/kg/injection, schedule: Q04DX003 (ip), vehicle: saline with Tween-80) was 151 % of control and 190 % of control. For the same compound, the T/C (dose: 37.0 mg/kg/injection, schedule: Q04DX003 (ip), vehicle: saline with Tween-80) was 155 % of control and 164 % of control, the T/C (dose: 68.0 mg/kg/injection, schedule: Q01DX Z (ip), vehicle: other) was 109 % of control and the T/C (dose: 102.0 mg/kg/injection, schedule: Q01DX Z (ip), vehicle: other) was 102 % of control.

For `O=C(c1ccccc1)c1ccsc1C(=O)c1ccccc1`, the T/C [10] was 89 % of control, the T/C [11] was 86 % of control and the T/C [12] was 89 % of control.

In the case of `CCC(/C=N/NC(N)=O)c1ccccc1OC` (stereo not drawn), the T/C [7] is reported as 96 % of control, the T/C [8] is reported as 104 % of control and the T/C [9] is reported as 109 % of control.

`CN1C(=O)NC(=O)C1c1ccccc1` (stereo not drawn) was tested, and the T/C (dose: 100.0 mg/kg/injection, schedule: Q04DX002 (ip), vehicle: saline) was 117 % of control, the T/C (dose: 200.0 mg/kg/injection, schedule: Q04DX002 (ip), vehicle: saline) was 106 % of control and the T/C (dose: 400.0 mg/kg/injection, schedule: Q04DX002 (ip), vehicle: saline) was 106 % of control.
